According to PMC6639057 (Investigational new drugs, 2018):

Tested on: patients with advanced solid tumors
Experiment: Adverse events
[1] = escalation 35 mg + G-CSF (n = 3)
[2] = escalation 40 mg + G-CSF (n = 11)
[3] = escalation 50 mg + G-CSF (n = 4)
[4] = escalation 1, 2, 4, 8 mg (n = 4)
[5] = expansion 40 mg + G-CSF, CRPC (n = 12)
[6] = expansion 40 mg + G-CSF, OC (n = 29)
[7] = expansion 40 mg + G-CSF, TNBC (n = 14)

Cc1csc(-c2nnc(Nc3ccc(Oc4ncccc4-c4ccnc(N)n4)cc3)c3ccccc23)c1 [AMG 900]
All treatment-related AEs [1]: 3 (100) n (%) | Fatal AEs [1]: 0 n (%) | Grade ≥ 3 AEs [1]: 2 (67) n (%) | Grade ≥ 3 treatment-related AEs [1]: 2 (67) n (%) | Grade ≥ 3 treatment-related AEs: Anemia [1]: 0 n (%) | Grade ≥ 3 treatment-related AEs: Diarrhea [1]: 0 n (%) | Grade ≥ 3 treatment-related AEs: Fatigue [1]: 0 n (%) | Grade ≥ 3 treatment-related AEs: Febrile neutropenia [1]: 0 n (%) | Grade ≥ 3 treatment-related AEs: Hemoglobin decreased [1]: 0 n (%) | Grade ≥ 3 treatment-related AEs: Leukopenia [1]: 1 (33) n (%) | Grade ≥ 3 treatment-related AEs: Lymphopenia [1]: 0 n (%) | Grade ≥ 3 treatment-related AEs: Nausea [1]: 0 n (%) | Grade ≥ 3 treatment-related AEs: Neutropenia [1]: 1 (33) n (%) | Grade ≥ 3 treatment-related AEs: Thrombocytopenia [1]: 0 n (%) | Grade ≥ 3 treatment-related AEs: Vomiting [1]: 1 (33) n (%) | Grade ≥ 3 treatment-related AEs: White blood cell count decreased [1]: 0 n (%) | Grade ≥ 4 AEs [1]: 1 (33) n (%) | Serious AEs [1]: 1 (33) n (%) | AEs leading to discontinuation of AMG 900 [2]: 2 (18) n (%) | All treatment-emergent AEs [2]: 11 (100) n (%) | All treatment-related AEs [2]: 10 (91) n (%) | Fatal AEs [2]: 0 n (%) | Grade ≥ 3 AEs [2]: 8 (73) n (%) | Grade ≥ 3 treatment-related AEs [2]: 6 (55) n (%) | Grade ≥ 3 treatment-related AEs: Anemia [2]: 0 n (%) | Grade ≥ 3 treatment-related AEs: Diarrhea [2]: 2 (18) n (%) | Grade ≥ 3 treatment-related AEs: Fatigue [2]: 0 n (%) | Grade ≥ 3 treatment-related AEs: Febrile neutropenia [2]: 2 (18) n (%) | Grade ≥ 3 treatment-related AEs: Hemoglobin decreased [2]: 0 n (%) | Grade ≥ 3 treatment-related AEs: Leukopenia [2]: 1 (9) n (%) | Grade ≥ 3 treatment-related AEs: Lymphopenia [2]: 1 (9) n (%) | Grade ≥ 3 treatment-related AEs: Nausea [2]: 0 n (%) | Grade ≥ 3 treatment-related AEs: Neutropenia [2]: 5 (46) n (%) | Grade ≥ 3 treatment-related AEs: Thrombocytopenia [2]: 1 (9) n (%) | Grade ≥ 3 treatment-related AEs: Vomiting [2]: 0 n (%) | Grade ≥ 3 treatment-related AEs: White blood cell count decreased [2]: 0 n (%) | Grade ≥ 4 AEs [2]: 4 (36) n (%) | Serious AEs [2]: 3 (27) n (%) | AEs leading to discontinuation of AMG 900 [3]: 2 (50) n (%) | All treatment-emergent AEs [3]: 4 (100) n (%) | All treatment-related AEs [3]: 4 (100) n (%) | Fatal AEs [3]: 1 (25) n (%) | Grade ≥ 3 AEs [3]: 3 (75) n (%) | Grade ≥ 3 treatment-related AEs [3]: 3 (75) n (%) | Grade ≥ 3 treatment-related AEs: Anemia [3]: 1 (25) n (%) | Grade ≥ 3 treatment-related AEs: Diarrhea [3]: 0 n (%) | Grade ≥ 3 treatment-related AEs: Fatigue [3]: 2 (50) n (%) | Grade ≥ 3 treatment-related AEs: Febrile neutropenia [3]: 1 (25) n (%) | Grade ≥ 3 treatment-related AEs: Hemoglobin decreased [3]: 0 n (%) | Grade ≥ 3 treatment-related AEs: Leukopenia [3]: 1 (25) n (%) | Grade ≥ 3 treatment-related AEs: Lymphopenia [3]: 0 n (%) | Grade ≥ 3 treatment-related AEs: Nausea [3]: 0 n (%) | Grade ≥ 3 treatment-related AEs: Neutropenia [3]: 1 (25) n (%) | Grade ≥ 3 treatment-related AEs: Thrombocytopenia [3]: 1 (25) n (%) | Grade ≥ 3 treatment-related AEs: Vomiting [3]: 0 n (%) | Grade ≥ 3 treatment-related AEs: White blood cell count decreased [3]: 0 n (%) | Grade ≥ 4 AEs [3]: 2 (50) n (%) | Serious AEs [3]: 2 (50) n (%) | AEs leading to discontinuation of AMG 900 [4]: 0 n (%) | All treatment-emergent AEs [4]: 4 (100) n (%) | All treatment-related AEs [4]: 3 (75) n (%) | Fatal AEs [4]: 0 n (%) | Grade ≥ 3 AEs [4]: 1 (25) n (%) | Grade ≥ 3 treatment-related AEs [4]: 1 (25) n (%) | Grade ≥ 3 treatment-related AEs: Anemia [4]: 1 (25) n (%) | Grade ≥ 3 treatment-related AEs: Diarrhea [4]: 0 n (%) | Grade ≥ 3 treatment-related AEs: Fatigue [4]: 0 n (%) | Grade ≥ 3 treatment-related AEs: Febrile neutropenia [4]: 0 n (%) | Grade ≥ 3 treatment-related AEs: Hemoglobin decreased [4]: 0 n (%) | Grade ≥ 3 treatment-related AEs: Leukopenia [4]: 0 n (%) | Grade ≥ 3 treatment-related AEs: Lymphopenia [4]: 0 n (%) | Grade ≥ 3 treatment-related AEs: Nausea [4]: 0 n (%) | Grade ≥ 3 treatment-related AEs: Neutropenia [4]: 0 n (%) | Grade ≥ 3 treatment-related AEs: Thrombocytopenia [4]: 0 n (%) | Grade ≥ 3 treatment-related AEs: Vomiting [4]: 0 n (%) | Grade ≥ 3 treatment-related AEs: White blood cell count decreased [4]: 0 n (%) | Grade ≥ 4 AEs [4]: 0 n (%) | Serious AEs [4]: 0 n (%) | AEs leading to discontinuation of AMG 900 [5]: 3 (25) n (%) | All treatment-emergent AEs [5]: 12 (100) n (%) | All treatment-related AEs [5]: 12 (100) n (%) | Fatal AEs [5]: 0 n (%) | Grade ≥ 3 AEs [5]: 9 (75) n (%) | Grade ≥ 3 treatment-related AEs [5]: 6 (50) n (%) | Grade ≥ 3 treatment-related AEs: Anemia [5]: 2 (17) n (%) | Grade ≥ 3 treatment-related AEs: Diarrhea [5]: 0 n (%) | Grade ≥ 3 treatment-related AEs: Fatigue [5]: 2 (17) n (%) | Grade ≥ 3 treatment-related AEs: Febrile neutropenia [5]: 0 n (%) | Grade ≥ 3 treatment-related AEs: Hemoglobin decreased [5]: 1 (8) n (%) | Grade ≥ 3 treatment-related AEs: Leukopenia [5]: 0 n (%) | Grade ≥ 3 treatment-related AEs: Lymphopenia [5]: 1 (8) n (%) | Grade ≥ 3 treatment-related AEs: Nausea [5]: 2 (17) n (%) | Grade ≥ 3 treatment-related AEs: Neutropenia [5]: 3 (25) n (%) | Grade ≥ 3 treatment-related AEs: Thrombocytopenia [5]: 1 (8) n (%) | Grade ≥ 3 treatment-related AEs: Vomiting [5]: 0 n (%) | Grade ≥ 3 treatment-related AEs: White blood cell count decreased [5]: 0 n (%) | Grade ≥ 4 AEs [5]: 2 (17) n (%) | Serious AEs [5]: 4 (33) n (%) | AEs leading to discontinuation of AMG 900 [6]: 5 (17) n (%) | All treatment-emergent AEs [6]: 29 (100) n (%) | All treatment-related AEs [6]: 28 (97) n (%) | Fatal AEs [6]: 0 n (%) | Grade ≥ 3 AEs [6]: 25 (86) n (%) | Grade ≥ 3 treatment-related AEs [6]: 22 (76) n (%) | Grade ≥ 3 treatment-related AEs: Anemia [6]: 12 (41) n (%) | Grade ≥ 3 treatment-related AEs: Diarrhea [6]: 1 (3) n (%) | Grade ≥ 3 treatment-related AEs: Fatigue [6]: 1 (3) n (%) | Grade ≥ 3 treatment-related AEs: Febrile neutropenia [6]: 6 (21) n (%) | Grade ≥ 3 treatment-related AEs: Hemoglobin decreased [6]: 2 (7) n (%) | Grade ≥ 3 treatment-related AEs: Leukopenia [6]: 3 (10) n (%) | Grade ≥ 3 treatment-related AEs: Lymphopenia [6]: 1 (3) n (%) | Grade ≥ 3 treatment-related AEs: Nausea [6]: 0 n (%) | Grade ≥ 3 treatment-related AEs: Neutropenia [6]: 17 (59) n (%) | Grade ≥ 3 treatment-related AEs: Thrombocytopenia [6]: 6 (21) n (%) | Grade ≥ 3 treatment-related AEs: Vomiting [6]: 1 (3) n (%) | Grade ≥ 3 treatment-related AEs: White blood cell count decreased [6]: 2 (7) n (%) | Grade ≥ 4 AEs [6]: 12 (41) n (%) | Serious AEs [6]: 14 (48) n (%) | AEs leading to discontinuation of AMG 900 [7]: 5 (36) n (%) | All treatment-emergent AEs [7]: 14 (100) n (%) | All treatment-related AEs [7]: 13 (93) n (%) | Fatal AEs [7]: 3 (21) n (%) | Grade ≥ 3 AEs [7]: 11 (79) n (%) | Grade ≥ 3 treatment-related AEs [7]: 6 (43) n (%) | Grade ≥ 3 treatment-related AEs: Anemia [7]: 4 (29) n (%) | Grade ≥ 3 treatment-related AEs: Diarrhea [7]: 1 (7) n (%) | Grade ≥ 3 treatment-related AEs: Fatigue [7]: 0 n (%) | Grade ≥ 3 treatment-related AEs: Febrile neutropenia [7]: 1 (7) n (%) | Grade ≥ 3 treatment-related AEs: Hemoglobin decreased [7]: 0 n (%) | Grade ≥ 3 treatment-related AEs: Leukopenia [7]: 0 n (%) | Grade ≥ 3 treatment-related AEs: Lymphopenia [7]: 0 n (%) | Grade ≥ 3 treatment-related AEs: Nausea [7]: 1 (7) n (%) | Grade ≥ 3 treatment-related AEs: Neutropenia [7]: 4 (29) n (%) | Grade ≥ 3 treatment-related AEs: Thrombocytopenia [7]: 1 (7) n (%) | Grade ≥ 3 treatment-related AEs: Vomiting [7]: 0 n (%) | Grade ≥ 3 treatment-related AEs: White blood cell count decreased [7]: 0 n (%) | Grade ≥ 4 AEs [7]: 5 (36) n (%) | Serious AEs [7]: 7 (50) n (%)
